Test results from US12668600B2 (Kumquat Biosciences Inc., priority 2023, dated 2026).

What was measured:
Assay type in all cases: biochemical
[1] = biological target: T1, KRAS G12D (Homo sapiens, UniProt P01116, G12D); assay: HTRF KRAS-SOS1 interaction assay, KRAS G12D; details: binned ≤2 μM / >2 μM, read-out: Inhibition of KRAS G12D (IC50)
T1 construct: made in house; host or cells: E. coli, e.g. BL21 (DE3)
Summary of the method: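 Inhibition of the KRAS–SOS1 interaction was measured by HTRF (ex 337, em 620/665 nm) after ≥~10 min incubation. Donor: anti-GST-Eu on GST-KRAS; acceptor: anti-6His-XL665 on His-hSOS1, in HEPES pH 7.4 buffer with DTT, BSA and Igepal. Compounds in duplicate at 0.01–10 μM; IC50 from emission ratio.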

[2] = biological target: T2, KRAS WT (Homo sapiens, UniProt P01116); assay: HTRF KRAS-SOS1 interaction assay, wildtype KRAS; details: binned ≤2 μM / >2 μM, read-out: Inhibition of KRAS WT (IC50)
T2 construct: made in house; host or cells: E. coli, e.g. BL21 (DE3)
T2 sequence (P01116 1-188 isoform P01116-2): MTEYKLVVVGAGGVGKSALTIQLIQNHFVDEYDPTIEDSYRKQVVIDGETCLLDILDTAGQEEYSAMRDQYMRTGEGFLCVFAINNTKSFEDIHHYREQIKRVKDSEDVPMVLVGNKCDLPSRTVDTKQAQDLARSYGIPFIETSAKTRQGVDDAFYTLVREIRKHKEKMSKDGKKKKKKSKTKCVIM
Source text: (§1) This assay can be also used to assess a selective inhibition or reduction of signaling output of a mutant Ras protein relative to a wildtype, or relative to a different mutant Ras protein. For example, the equilibrium interaction of wildtype KRAS or K-Ras mutant (e.g., wildtype or a mutant thereof) with SOS1 (e.g., hSOS1) can be assessed as a proxy or an indication for the ability of a subject compound to bind and inhibit Ras protein. The HTRF assay detects from (i) a fluorescence resonance energy transfer (FRET) donor (e.g., antiGST-Europium) that is bound to GST-tagged K-Ras mutant to (ii) a FRET acceptor (e.g., anti-6His-XL665) bound to a His-tagged hSOS1.
(§2) The assay buffer can contain ˜5 mM HEPES pH 7.4, ˜150 mM NaCl, ˜1 mM DTT, 0.05% BSA and 0.0025% (v/v) Igepal. A Ras working solution is prepared in an assay buffer containing typically a suitable amount of the protein construct (e.g., GST-tagged K-Ras mutant) and the FRET donor (e.g., antiGST-Eu (K) from Cisbio, France). A SOS1 working solution is prepared in an assay buffer containing suitable amount of the protein construct (e.g., His-hSOS1) and the FRET acceptor (e.g., anti-6His-XL665 from Cisbio, France). A suitable amount of the protein construct will depend on the range of activity or range of IC50 values being detected or under investigation. For detecting an IC50 within a range of 500 nM, the protein constructs of the same range of molarity can be utilized.
(§3) A fixed volume of DMSO with or without test compound is transferred into a 384-well plate. Ras working solution is added to all wells of the test plate. SOS1 working solution is added to all wells except for those that are subsequently filled with inhibitor control solution. Upon incubation for about 10 minutes or longer, the fluorescence is measured with a M1000Pro plate reader (Tecan) using HTRF detection (excitation 337 nm, emission 1:620 nm, emission 2:665 nm). Compounds are tested in duplicate at different concentrations (for example, 10 μM, 2.5 μM, 0.63 μM, 0.16 μM, 0.04 μM, 0.01 μM test compound). The ratiometric data (i.e., emission 2 divided by emission 1) is used to calculate IC50 values against Ras using GraphPad Prism (GraphPad software). Signaling output measured in terms of IC50 values can be obtained and a ratio of IC50 against one mutant relative to another mutant can be calculated.

[3] = biological target: T3, KRAS G12V (Homo sapiens, UniProt P01116, G12V); assay: HTRF KRAS-SOS1 interaction assay, KRAS G12V; details: binned ≤2 μM / >2 μM, read-out: Inhibition of KRAS G12V (IC50)
T3 construct: made in house; host or cells: E. coli, e.g. BL21 (DE3)
T3 sequence (P01116 1-188 isoform P01116-2 G12V): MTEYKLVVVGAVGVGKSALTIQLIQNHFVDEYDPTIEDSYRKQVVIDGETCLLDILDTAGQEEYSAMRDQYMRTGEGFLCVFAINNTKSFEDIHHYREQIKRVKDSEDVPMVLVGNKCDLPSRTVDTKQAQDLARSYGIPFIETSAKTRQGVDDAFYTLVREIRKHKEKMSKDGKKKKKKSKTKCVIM
Source text: as §1, §2, §3

[4] = biological target: T4, KRAS G12S (Homo sapiens, UniProt P01116, G12S); assay: HTRF KRAS-SOS1 interaction assay, KRAS G12S; details: binned ≤2 μM / >2 μM, read-out: Inhibition of KRAS G12S (IC50)
T4 construct: made in house; host or cells: E. coli, e.g. BL21 (DE3)
T4 sequence (P01116 1-188 isoform P01116-2 G12S): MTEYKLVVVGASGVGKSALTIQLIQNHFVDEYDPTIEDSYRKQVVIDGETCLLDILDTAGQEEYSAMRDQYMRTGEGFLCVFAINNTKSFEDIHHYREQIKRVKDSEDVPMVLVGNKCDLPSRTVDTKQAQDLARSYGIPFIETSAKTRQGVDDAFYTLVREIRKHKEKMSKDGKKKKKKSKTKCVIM
Source text: as §1, §2, §3

T1 sequence (P01116 1-188 isoform P01116-2 G12D): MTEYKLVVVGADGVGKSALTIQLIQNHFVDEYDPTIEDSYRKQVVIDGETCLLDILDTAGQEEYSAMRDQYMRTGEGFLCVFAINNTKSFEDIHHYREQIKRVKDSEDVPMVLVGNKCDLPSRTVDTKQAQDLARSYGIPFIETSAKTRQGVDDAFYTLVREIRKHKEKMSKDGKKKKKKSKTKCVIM

SMILES	IC50 [1]	IC50 [2]	IC50 [3]	IC50 [4]
CN1CCC[C@H]1COc1nc2c3c(c(Cl)c(-c4ccc(F)c5sc(N)c(C#N)c45)c(F)c3n1)OCCN2C(c1cccnc1N)C(F)F (mixture of isomers) [Compound 769, 2-amino-4-(4-(1-(2-aminopyridin-3-yl)-2,2-difluoroethyl)-8-chloro-10-fluoro-2-(((S)-1-methylpyrrolidin-2-yl)methoxy)-5,6-dihydro-4H-[1,4]oxazepino[5,6,7-de]quinazolin-9-yl)-7-fluorobenzo[b]thiophene-3-carbonitrile]	≤ 2000 nM	≤ 2000 nM	≤ 2000 nM	≤ 2000 nM
C[C@@H]1CN(CC2(COc3nc4c5c(c(C(F)(F)F)c(-c6ccc(F)c7sc(N)c(C#N)c67)c(F)c5n3)OCCN4[C@H](C)c3cccnc3N)CC2)CCO1 (single isomer, unassigned) [Compound 826]	> 2000 nM	> 2000 nM	> 2000 nM	> 2000 nM
N#Cc1c(N)sc2c(F)ccc(-c3c(Cl)c4c5c(nc(OC[C@@]67CCCN6C[C@@]6(CC6(F)F)C7)nc5c3F)N([C@@H](c3cccnc3N)C(F)F)CCO4)c12 [Compound 831, 2-amino-4-(4-((S)-1-(2-aminopyridin-3-yl)-2,2-difluoroethyl)-8-chloro-2-(((1S,7a′S)-2,2-difluorodihydro-1′H,3′H-spiro[cyclopropane-1,2′-pyrrolizin]-7a′(5′H)-yl)methoxy)-10-fluoro-5,6-dihydro-4H-[1,4]oxazepino[5,6,7-de]quinazolin-9-yl)-7-fluorobenzo[b]thiophene-3-carbonitrile]	≤ 2000 nM	≤ 2000 nM	≤ 2000 nM	≤ 2000 nM
CN(C)CC[C@H](c1cccnc1N)N1CCOc2c(C(F)(F)F)c(-c3ccc(F)c4sc(N)c(C#N)c34)c(F)c3nc(OC[C@@]45CCCN4C[C@H](F)C5)nc1c23 (single isomer, unassigned) [Compound 669]	–	≤ 2000 nM	≤ 2000 nM	≤ 2000 nM
C[C@H](c1cccnc1N)N1CCOc2c(Cl)c(-c3cccc4sc(N)c(C#N)c34)c(F)c3nc(OC[C@@]45CCCN4C[C@H](F)C5)nc1c23 (single isomer, unassigned) [Compound 668]	–	≤ 2000 nM	≤ 2000 nM	≤ 2000 nM
CC(c1cccnc1N)N1CCOc2c(Cl)c(-c3ccc(F)c4sc(N)c(C#N)c34)c(F)c3nc(OC[C@@]45CCCN4C[C@H](F)C5)nc1c23 (single isomer, unassigned) [Compound 656]	–	≤ 2000 nM	≤ 2000 nM	≤ 2000 nM
N#Cc1c(N)sc2c(F)ccc(-c3c(C(F)(F)F)c4c5c(nc(OC[C@@]67CCCN6C[C@H](F)C7)nc5c3F)N([C@H](CC3CC(F)(F)C3)c3cccnc3N)CCO4)c12 (single isomer, unassigned) [Compound 686]	–	≤ 2000 nM	≤ 2000 nM	≤ 2000 nM
C[C@H]1CN([C@@H](c2cccnc2N)C(F)F)c2nc(OC[C@@]34CCCN3C[C@H](F)C4)nc3c(F)c(-c4ccc(F)c5sc(N)c(C#N)c45)c(C(F)(F)F)c(c23)O1 (single isomer, unassigned) [Compound 879]	–	≤ 2000 nM	≤ 2000 nM	≤ 2000 nM
C[C@H](c1cccnc1N)N1CCOc2c(Cl)c(-c3cccc4sc(N)c(C#N)c34)c(F)c3nc(OC[C@@]45CCCN4CC(=C(F)F)C5)nc1c23 (single isomer, unassigned) [Compound 660]	–	≤ 2000 nM	≤ 2000 nM	≤ 2000 nM
CCO/N=C1\CN2CCC[C@@]2(COc2nc3c4c(c(Cl)c(-c5ccc(F)c6sc(N)c(C#N)c56)c(F)c4n2)OCCN3[C@H](C)c2cccnc2N)C1 (single isomer, unassigned) [Compound 627]	–	≤ 2000 nM	≤ 2000 nM	≤ 2000 nM
C=Cc1c(-c2ccc(F)c3sc(N)c(C#N)c23)c(F)c2nc(OC[C@@]34CCCN3C[C@H](F)C4)nc3c2c1OCCN3[C@H](C)c1cccnc1N (single isomer, unassigned) [Compound 603]	–	≤ 2000 nM	≤ 2000 nM	≤ 2000 nM
N#Cc1c(N)sc2c(F)ccc(-c3c(C(F)(F)F)c4c5c(nc(OC[C@@]67CCCN6C[C@H](F)C7)nc5c3F)N([C@H](CCC3CCOCC3)c3cccnc3N)CCO4)c12 (single isomer, unassigned) [Compound 611]	–	≤ 2000 nM	≤ 2000 nM	≤ 2000 nM

Now from value to compound:

IC50 [1]	IC50 [2]	IC50 [3]	IC50 [4]	SMILES
≤ 2000 nM	≤ 2000 nM	≤ 2000 nM	≤ 2000 nM	C=C[C@H]1COc2c(Cl)c(-c3ccc(F)c4sc(N)c(C#N)c34)c(F)c3nc(OC[C@@]45CCCN4C[C@H](F)C5)nc(c23)N1C(C)c1cccnc1N (single isomer, unassigned) [Compound 732]
≤ 2000 nM	≤ 2000 nM	≤ 2000 nM	≤ 2000 nM	N#Cc1c(N)sc2c(F)ccc(-c3c(C(F)(F)F)c4c5c(nc(OC[C@@]67CCCN6C[C@H](F)C7)nc5c3F)N([C@H](CCC3CC3)c3cccnc3N)CCO4)c12 (single isomer, unassigned) [Compound 877]
≤ 2000 nM	≤ 2000 nM	≤ 2000 nM	≤ 2000 nM	C=C[C@H](c1cccnc1N)N1CCOc2c(Cl)c(-c3ccc(F)c4sc(N)c(C#N)c34)c(F)c3nc(OC[C@@]45CCCN4C[C@H](F)C5)nc1c23 [Compound 759, 2-amino-4-(4-((R)-1-(2-aminopyridin-3-yl)allyl)-8-chloro-10-fluoro-2-(((2R,7aS)-2-fluorotetrahydro-1H-pyrrolizin-7a(5H)-yl)methoxy)-5,6-dihydro-4H-[1,4]oxazepino[5,6,7-de]quinazolin-9-yl)-7-fluorobenzo[b]thiophene-3-carbonitrile]
≤ 2000 nM	≤ 2000 nM	≤ 2000 nM	≤ 2000 nM	N#Cc1c(N)sc2c(F)ccc(-c3c(C(F)(F)F)c4c5c(nc(OC[C@@]67CCCN6C[C@@]6(CC6(F)F)C7)nc5c3F)N([C@H](CCC3CCOCC3)c3cccnc3N)CCO4)c12 [Compound 650, 2-amino-4-(4-((R)-1-(2-aminopyridin-3-yl)-3-(tetrahydro-2H-pyran-4-yl)propyl)-2-(((1S,7a′S)-2,2-difluorodihydro-1′H,3′H-spiro[cyclopropane-1,2′-pyrrolizin]-7a′(5′H)-yl)methoxy)-10-fluoro-8-(trifluoromethyl)-5,6-dihydro-4H-[1,4]oxazepino[5,6,7-de]quinazolin-9-yl)-7-fluorobenzo[b]thiophene-3-carbonitrile]
–	≤ 2000 nM	≤ 2000 nM	≤ 2000 nM	CCC(c1cccnc1N)N1CCOc2c(Cl)c(-c3ccc(F)c4sc(N)c(C#N)c34)c(F)c3nc(OC[C@@]45CCCN4C[C@H](F)C5)nc1c23 (mixture of isomers) [Compound 643, 2-amino-4-(4-(1-(2-aminopyridin-3-yl)propyl)-8-chloro-10-fluoro-2-(((2R,7aS)-2-fluorotetrahydro-1H-pyrrolizin-7a(5H)-yl)methoxy)-5,6-dihydro-4H-[1,4]oxazepino[5,6,7-de]quinazolin-9-yl)-7-fluorobenzo[b]thiophene-3-carbonitrile]
–	≤ 2000 nM	≤ 2000 nM	≤ 2000 nM	C[C@H](c1cccnc1N)N1CCOc2c(C(F)(F)F)c(-c3ccc(F)c4sc(N)c(C#N)c34)c(F)c3nc(OC[C@@]45CCCN4CC(C#N)C5)nc1c23 (single isomer, unassigned) [Compound 663]
